This is an account of results in patent US20250277793A1, “COMPOSITIONS AND METHODS FOR CANCER DIAGNOSIS” (AOA Dx, priority 2020, published 2025).

Where “and” joins values, the source holds several entries; their conditions need not be identical. Equal values may be shown once. Some results are limits rather than exact numbers.

For one data set, the system named is anti-GD2 mAbs. The data set is described as follows: Direct binding ELISA, GD2 versions with anti-GD2 antibody. On the set-up: species or system mouse. Conditions: antigen immobilized 10 ng/well, mAb 7 nM final; for OD(450 nm): individual replicate wells; for OD(450 nm) Average: mean of 3. As to the method: (§1) Native gangliosides (GD2 or GD3, Control), Tria-tri-GD2, Tria-tri-GD3, PAMAM-GD2, PAMAM-GD3, or the monomeric precursors AP-GD2 or AP-GD3 were immobilized onto polystyrene Corning Strip Well 96-well plates (10 ng/well). After bocking all wells with albumin (BSA), the wells were reacted for binding by anti-GD2 or […] (7 nM final) or with serum from mice vaccinated with PAMAM-GD2 (1:75 dilution). Secondary antibody used was horseradish peroxidase (HRP)-conjugated anti-mouse IgG (Sigma). BG=background control.
A general note: ELISA stands for enzyme-linked immunosorbent assay.

In data set [1] the test system is serum from mice vaccinated with PAMAM-GD2. The experiment in a line: Direct binding ELISA, GD2 versions with vaccinated mouse sera. To be noted: antigen 10 ng/well, serum 1:75 dilution; for OD(450 nm): individual replicate wells; for OD(450 nm) Average: mean of 3. The method, then:
as §1

Data set [2] has as its system antisera raised against PAMAM-GD3. The experiment in a line: Direct binding ELISA, GD3 versions with vaccinated mouse sera. More on the design: species or system mice. Conditions: antigen 10 ng/well, serum 1:75 dilution; for OD(450 nm): individual replicate wells; for OD(450 nm) Average: mean of 3.
Another data set relates to anti-GD3 mAbs. The experiment in a line: Direct binding ELISA, GD3 versions with anti-GD3 antibody. More on the design: species or system mouse. To be noted: antigen immobilized 10 ng/well, mAb 7 nM final; for OD(450 nm): individual replicate wells; for OD(450 nm) Average: mean of 3. As to the method:
as §1

Data set [3] is described as follows: Water solubility of intermediate carbohydrates. To be noted: read-out: water soluble. Type of data set: physicochemical. As to the method:
p-Aminophenylether-b-D-lactopyranoside (AP-Lac, from Toronto Research Chemicals) was used to enzymatically synthesize water soluble (>20 mg/ml) AP-GD2 and AP-GD3 intermediate carbohydrates. The synthesis of AP-GD2 included […] of AP-GD3 (4 mM), […] of UDP-GalNAc (5.4 mM), and 10.5 units of CgtA (construct CJL-30), 10 mM MnCl2 and 24 mM Hepes pH 7.0 in a final volume of 55 ml. The reaction mixture was incubated at 37° C. for 6.5 hr. Insoluble material was removed by centrifugation at 27,000 g for 15 min and the enzyme was removed by ultrafiltration using a 10 kDa membrane cut off. The filtrate was loaded on SepPak C18 5 g column (waters Corp) and the product was eluted with water while unidentified contaminants remained in the column. The product was further purified by anion exchange chromatography on HiTrapQ (GE Healthcare) using a gradient of 0-0.3 M NH4HCO3 and by size exclusion chromatography on a Superdex Peptide 10/300 GL column (GE Healthcare). The measured molecular weights of AP-GD2 (1,218 g/mol) and AP-GD3 (927 g/mol) correspond to expected values. Structures were verified by 1D and 2D NMR spectroscopy and mass spectrometry (EI-MS). […]

On to `CC/C=C/C(O)C(CO[C@@H]1OC(CO)[C@@H](O[C@@H]2OC(CO)[C@H](O[C@@H]3OC(CO)[C@H](O)C(O)C3NC(C)=O)C(O[C@]3(C(=O)O)CC(O)[C@@H](NC(C)=O)C([C@H](O)[C@@H](CO)O[C@]4(C(=O)O)CC(O)[C@@H](NC(C)=O)C([C@H](O)[C@H](O)CO)O4)O3)C2O)C(O)C1O)NC(=O)CC` (stereo partly drawn) [GD2, reference compound], for which the “OD(450 nm)” value with anti-GD2 mAbs (listed as Control) was 1.174 and 1.069 and 1.072; in data set [1], 1.319 and 1.23 and 1.128. Besides, the entries for the “OD(450 nm) Average” value (in the data set with anti-GD2 mAbs; in data set [1]) were 1.105 and 1.226, respectively.
As for `CC/C=C/C(O)C(CO[C@@H]1OC(CO)[C@@H](O[C@@H]2OC(CO)[C@H](O)C(O[C@]3(C(=O)O)CC(O)[C@@H](NC(C)=O)C([C@H](O)[C@@H](CO)O[C@]4(C(=O)O)CC(O)[C@@H](NC(C)=O)C([C@H](O)[C@H](O)CO)O4)O3)C2O)C(O)C1O)NC(=O)CC` (stereo partly drawn) [GD3, reference compound], in data set [2], the “OD(450 nm)” value is 0.646 and 0.534 and 0.555; the “OD(450 nm) Average” value was 0.5783. Moreover, in the data set on anti-GD3 mAbs, the “OD(450 nm)” value was 0.602 and 0.465 and 0.493; the “OD(450 nm) Average” value is reported as 0.52.
`CC(=O)NC1C(OC2C(CO)OC(OC3C(CO)OC(Oc4ccc(N)cc4)C(O)C3O)C(O)C2OC2(C(=O)O)CC(O)C(NC(C)=O)C([C@H](O)C(CO)OC3(C(=O)O)CC(O)C(NC(C)=O)C([C@H](O)[C@H](O)CO)O3)O2)OC(CO)C(O)C1O` (stereo partly drawn) [AP-GD2, p-amino phenyl ether-GD2]: in the data set on anti-GD2 mAbs, the “OD(450 nm)” value was 0.483 and 0.558 and 0.568; the “OD(450 nm) Average” value worked out at 0.5363. In data set [1], the “OD(450 nm)” value was 0.694 and 0.587 and 0.635; the “OD(450 nm) Average” value amounted to 0.6387. Besides, the solubility in data set [3] is more than 20 mg/mL.
Turning to `CC(=O)NC1C(O)CC(OC2C(O)C(CO)OC(OC3C(CO)OC(Oc4ccc(N)cc4)C(O)C3O)C2O)(C(=O)O)OC1[C@H](O)C(CO)OC1(C(=O)O)CC(O)C(NC(C)=O)C([C@H](O)[C@H](O)CO)O1` (stereo partly drawn) [AP-GD3, p-amino phenyl ether-GD3], in data set [2], the “OD(450 nm)” value is 0.483 and 0.558 and 0.568; the “OD(450 nm) Average” value is 0.5363. Moreover, in the data set with anti-GD3 mAbs, the “OD(450 nm)” value is 0.483 and 0.558 and 0.568; the “OD(450 nm) Average” value is recorded as 0.5363. Also, the solubility in data set [3] is more than 20 mg/mL.
